Test results: US20090087845A1, “Genetic Markers Of True Low Birth Weight” (priority 2005, published 2009)
“And” between values parts separate entries of the source, which are not always exact repeats. Identical values can stand only once.

System: placental gene expression
Assay: Placental gene expression (Affymetrix Rat Genome Chip 230.2) after SSRI (fluoxetine) exposure throughout gestation
Format: in vivo
Conditions: SSRI exposure during gestation
Experimental: Gene expression data from pregnant rats under different forms of dietary restriction was gathered. […] (N=8) • Group 2 (CR50): Rats Given 50% of their Normal Daily Intake of Food. (N=5) • Group 3 (CR70): Rats Given 70% of their Normal Daily Intake of Food. […] (N=6) Placentas from the rats of each Group were harvested on Day 21 of gestation. RNA was extracted and gene expression was measured based on hybridization of RNA to Affymetrix Rat Genome Chips™ (230.2) (Affymetrix, Santa Clara, Calif.).
In order to determine whether placental gene expression profiling can be used to identify other prenatal exposures such as toxicants and drugs, a group of rats with drug exposure was monitored as described above. […] As with control, CR50, CR70, and HF groups, placentas from the mothers were sampled after 21 days of gestation and gene expression monitored utilizing an Affymetrix Rat Genome Chip.

Compound: CNCCC(Oc1ccc(C(F)(F)F)cc1)c1ccccc1 (stereo not shown) [fluoxetine, Fluoxetine]
- Probeset 1367856_at expression: 9.227 and 9.529 and 9.365 and 9.385 and 9.39 and 9.762
- Probeset 1367877_at expression: 10.9 and 11 and 11.21 and 11.25 and 10.7225 and 10.35
- Probeset 1368083_at expression: 8.132 and 7.967 and 8.206 and 8.272 and 8.391 and 8.145
- Probeset 1368824_at expression: 8.826 and 8.855 and 9.531 and 9.13 and 8.806 and 9.976
- Probeset 1369754_a_at expression: 8.0392 and 8.245 and 7.92 and 7.959 and 8 and 8.033
- Probeset 1369775_at expression: 8.114 and 8.469 and 8.777 and 8.329 and 7.897 and 9.185
- Probeset 1370293_at expression: 5.003 and 5.146 and 4.947 and 4.866 and 4.888 and 5.155
- Probeset 1370317_at expression: 8.087 and 8.102 and 8.255 and 8.308 and 8.15 and 8.491
- Probeset 1370521_at expression: 8.446 and 8.335 and 8.321 and 8.443 and 8.486 and 8.352
- Probeset 1370682_at expression: 5.234 and 5.326 and 5.095 and 5.171 and 5.242 and 5.482
- Probeset 1370766_at expression: 4.942 and 4.938 and 5.166 and 5.489 and 5.322 and 4.712
- Probeset 1370918_a_at expression: 11.31 and 11.2792 and 11.25 and 11.37 and 11.45 and 11.49
- Probeset 1370983_at expression: 5.843
- Probeset 1371435_at expression: 11.01 and 10.91 and 11.23 and 11.08 and 10.99 and 11.27
- Probeset 1372141_at expression: 9.139 and 9.134 and 9.292 and 9.347 and 9.239 and 9.295
- Probeset 1373319_at expression: 9.055 and 9.237 and 9.183 and 9.332 and 9.182 and 9.352
- Probeset 1373396_at expression: 9.155 and 8.864 and 9.203 and 9.102 and 8.933 and 8.366
- Probeset 1373572_at expression: 7.868 and 7.822 and 7.63 and 7.991 and 8.104 and 8.161
- Probeset 1373647_at expression: 8.371 and 8.23 and 8.672 and 8.447 and 8.268 and 8.235
- Probeset 1373702_at expression: 8.332 and 8.305 and 8.162 and 8.514 and 8.322 and 7.814
- Probeset 1373804_at expression: 6.825 (2×) and 6.702 and 7.208 and 7.238 and 7.527
- Probeset 1374112_at expression: 6.448 and 6.479 and 6.686 and 6.529 and 6.5 and 6.601
- Probeset 1374739_at expression: 8.91 and 8.84 and 9.07 and 9.074 and 8.858 and 8.669
- Probeset 1375178_at expression: 5.861 and 5.694 and 5.836 and 5.574 and 5.873 and 5.942
- Probeset 1375407_at expression: 4.147 and 4.198 and 4.162 and 4.179 and 4.18 and 4.21
- Probeset 1376294_at expression: 8.241 and 8.136 and 8.122 and 8.206 and 8.031 and 7.939
- Probeset 1376622_at expression: 9.179 and 9.106 and 9.158 and 9.007 and 8.828 and 8.85
- Probeset 1376661_at expression: 9.243 and 8.93 and 9.166 and 9.213 and 9.04 and 8.674
- Probeset 1377210_at expression: 5.248 and 4.863 and 5.701 and 5.485 and 5.015 and 5.172
- Probeset 1377365_at expression: 4.943 and 5.014 and 4.818 and 5.177 and 5.084 and 4.987
- Probeset 1377621_at expression: 9.058 and 9.148 and 9.272 and 8.936 and 8.844 and 9.114
- Probeset 1377746_at expression: 6.748 and 6.563 and 6.855 and 6.829 and 6.772 and 6.746
- Probeset 1378200_at expression: 3.497 and 3.656 and 3.453 and 3.611 and 3.537 and 3.653
- Probeset 1378318_at expression: 7.345 and 7.18 and 7.153 and 7.373 and 7.289 and 7.671
- Probeset 1378906_at expression: 4.061 and 4.197 and 4.196 and 4.263 and 4.048 and 4.099
- Probeset 1378992_at expression: 3.715 and 3.63 and 3.611 and 3.744 and 3.567 and 3.655
- Probeset 1379691_at expression: 5.195 and 5.15 and 5.65 and 5.355 and 5.021 and 5.425
- Probeset 1379822_at expression: 4.426 and 4.487 and 4.337 and 4.483 and 4.602 and 4.654
- Probeset 1379827_at expression: 7.363 and 6.823 and 7.052 and 7.077 and 7.08 and 7.626
- Probeset 1379963_at expression: 6.946 and 6.646 and 6.73 and 6.72 and 6.71 and 6.95
- Probeset 1380175_at expression: 5.161 (2×) and 4.962 and 5.291 and 5.16 and 5.03
- Probeset 1380454_at expression: 6.241 and 5.984 and 6.009 and 5.948 and 5.974 and 6.055
- Probeset 1380887_at expression: 4.924
- Probeset 1381074_at expression: 4.46 and 4.412
- Probeset 1381130_at expression: 3.907 and 4.131 and 4.062 and 4.007 and 3.997 and 4.159
- Probeset 1381286_at expression: 5.782 and 5.606 and 5.685 and 5.499 and 5.475 and 5.605
- Probeset 1381456_at expression: 5.51 and 5.294 and 5.392 and 5.362 and 5.479 and 5.538
- Probeset 1381492_at expression: 3.395 and 3.359 and 3.315 and 3.411 and 3.371 and 3.465
- Probeset 1381950_at expression: 3.272 and 3.248 and 3.336 and 3.304 and 3.319 and 3.328
- Probeset 1382156_at expression: 4.657 and 4.812 and 4.826 and 4.712 and 4.874 and 4.952
- Probeset 1382513_at expression: 6.674 and 6.665 and 6.481 and 6.607 and 6.737 and 6.659
- Probeset 1382670_at expression: 8.608 and 8.307 and 8.399 and 8.688 and 8.346 and 8.2197
- Probeset 1383054_at expression: 8.808 and 9.017 and 9.07 and 8.991 and 8.711 and 9.326
- Probeset 1383300_at expression: 8.006 and 8.007 and 8.362 and 8.2749 and 8.022 and 8.359
- Probeset 1383309_at expression: 8.849 and 8.69 and 8.969 and 8.891 and 8.934 and 8.618
- Probeset 1383329_at expression: 5.895 and 5.614 and 5.92 and 5.669 and 5.593 and 5.826
- Probeset 1383443_at expression: 5.684 and 5.567 and 5.755 and 5.468 and 5.752 and 5.677
- Probeset 1383599_at expression: 8.081 and 7.626 and 7.843 and 7.829 and 8.127 and 9.642
- Probeset 1383670_at expression: 6.71 and 6.607 and 6.621 and 6.709 and 6.712 and 7.383
- Probeset 1384367_at expression: 5.722 and 5.628 and 5.604 and 6.025 and 5.735 and 5.669
- Probeset 1384528_at expression: 6.295 and 6.64 and 6.851 and 6.656 and 6.5 and 7.042
- Probeset 1384573_at expression: 8.901 and 8.97 and 9.056 and 9.081 and 8.766 and 9.188
- Probeset 1384849_at expression: 4.389 and 4.321 and 4.282 and 4.323 and 4.508 and 4.489
- Probeset 1385074_at expression: 5.671 and 5.563 and 5.768 and 5.526 and 5.195 and 5.636
- Probeset 1385113_at expression: 7.347 and 7.428 and 7.301 and 7.161 and 7.417 and 7.088
- Probeset 1385137_at expression: 6.487 and 6.691 and 6.525 and 6.507 and 6.657 and 6.515
- Probeset 1385290_at expression: 5.912 and 5.666 and 5.934 and 5.765 and 5.855 and 6.05
- Probeset 1385386_at expression: 3.88 and 3.887 and 3.724 and 3.939 and 3.964 and 3.997
- Probeset 1385391_at expression: 3.906
- Probeset 1385676_at expression: 7.767 and 7.784 and 7.6 and 7.923 and 7.825 and 7.957
- Probeset 1385790_at expression: 8.874 and 8.703 and 8.936 and 8.711 and 8.797 and 8.832
- Probeset 1385967_at expression: 7.8281 and 7.604 and 7.783 and 7.853 and 7.739 and 7.587
- Probeset 1386125_at expression: 6.722 and 6.815 and 6.394 and 6.647 and 6.915 and 6.555
- Probeset 1387136_at expression: 6.858 and 6.879 and 6.716 and 6.836 and 6.917 and 6.91
- Probeset 1387693_a_at expression: 6.346 and 5.564 and 5.898 and 6.298 and 6.19 and 6.092
- Probeset 1387694_at expression: 4.568 (2×) and 4.709 and 4.717 and 4.669 and 4.592
- Probeset 1387822_at expression: 6.542 and 6.446 and 6.117 and 6.626 and 6.634 and 6.309
- Probeset 1387836_at expression: 6.084 and 6.195 and 5.76 and 6.333 and 6.223 and 6.427
- Probeset 1387914_at expression: 7.114 and 7.095 and 6.97 and 7.203 and 7.171 and 6.743
- Probeset 1388091_at expression: 4.883 and 4.896 and 4.86 and 4.66 and 4.763 and 5.101
- Probeset 1388131_at expression: 5.883 and 5.853 (2×) and 5.899 and 5.7 and 5.653
- Probeset 1388363_at expression: 8.334 and 8.137 and 8.387 and 8.484 and 8.155 and 8.23
- Probeset 1388396_at expression: 8.583 and 8.468 and 8.633 and 8.876 and 8.642 and 8.158
- Probeset 1388669_at expression: 7.593 and 7.653 and 7.716 and 7.739 and 7.557 and 7.506
- Probeset 1389095_at expression: 4.796 and 4.404 and 4.732 and 4.907 and 5.027 and 4.473
- Probeset 1389213_at expression: 8.131 and 8.028 and 7.745 and 7.914 and 8.246 and 8.135
- Probeset 1389599_at expression: 7.15 and 6.872 and 6.834 and 7.063 and 7.294 and 6.817
- Probeset 1389938_at expression: 3.471 and 3.408 and 3.488 and 3.5 and 3.516 and 3.49
- Probeset 1390406_at expression: 10.34 and 10.3557 and 10.5 and 10.19 and 10.46 and 10.31
- Probeset 1390477_at expression: 5.455 and 5.297 and 5.408 and 5.153 and 5.575 and 5.333
- Probeset 1390592_at expression: 7.922 and 8.042 and 8.388 and 8.1 and 7.908 and 8.783
- Probeset 1390603_at expression: 7.171 and 7.008 and 7.6 and 6.976 and 7.243 and 7.286
- Probeset 1390649_at expression: 7.938 and 7.688 and 7.673 and 7.791 and 7.858 and 7.491
- Probeset 1390892_at expression: 5.596 and 5.604 and 5.507 and 5.408 and 5.571 and 5.5082
- Probeset 1391078_at expression: 8.106 and 8.271 and 8.74 and 8.604 and 8.221 and 9.079
- Probeset 1391283_at expression: 5.834 and 5.874 and 5.96 and 5.702 and 5.598 and 5.898
- Probeset 1391376_at expression: 7.65 and 7.982 and 7.683 and 7.518 and 7.491 and 7.602
